Results taken from US20250230165A1, “HETEROCYCLIC COMPOUNDS FOR USE IN THE TREATMENT OF CANCER” (ARTIOS PHARMA LIMITED, priority 2021, published 2025).

biological target: T1, Human Polθ polymerase domain (aa1820-2590) (Homo sapiens, UniProt O75417); assay: Polθ Polymerase Domain Kinact/KI Assay (PicoGreen); assay type: biochemical; conditions: 0.8 nM Polθ, 100 nM DNA substrate, kobs vs [I] fit for 2-step covalent inhibitor
T1 construct: Human Polθ polymerase domain (aa1820-2590) was expressed in E. coli; made in house; host or cells: E. coli
T1 sequence (O75417 1820-2590): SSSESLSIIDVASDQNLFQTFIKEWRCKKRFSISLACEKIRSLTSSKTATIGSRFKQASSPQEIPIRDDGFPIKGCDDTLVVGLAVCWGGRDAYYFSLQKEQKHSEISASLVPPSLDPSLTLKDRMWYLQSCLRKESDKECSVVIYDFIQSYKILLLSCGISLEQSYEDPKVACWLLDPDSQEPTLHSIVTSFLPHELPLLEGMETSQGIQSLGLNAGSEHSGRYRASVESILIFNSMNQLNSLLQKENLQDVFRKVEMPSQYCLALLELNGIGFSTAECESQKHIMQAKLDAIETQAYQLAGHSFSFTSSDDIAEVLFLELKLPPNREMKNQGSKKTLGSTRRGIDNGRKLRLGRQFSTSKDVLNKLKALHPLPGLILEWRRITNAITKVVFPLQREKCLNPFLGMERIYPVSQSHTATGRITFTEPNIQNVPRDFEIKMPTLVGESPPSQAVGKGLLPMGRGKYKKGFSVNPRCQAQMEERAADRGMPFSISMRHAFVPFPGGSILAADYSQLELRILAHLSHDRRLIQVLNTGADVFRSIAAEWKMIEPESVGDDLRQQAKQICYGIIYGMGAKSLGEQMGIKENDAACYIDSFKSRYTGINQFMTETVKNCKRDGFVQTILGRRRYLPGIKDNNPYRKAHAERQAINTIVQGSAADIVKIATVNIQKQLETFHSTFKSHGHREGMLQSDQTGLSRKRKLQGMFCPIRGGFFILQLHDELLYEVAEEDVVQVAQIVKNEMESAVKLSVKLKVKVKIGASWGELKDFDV
Method: Polθ Polymerase Domain Kinact/KI Assay
A PicoGreen assay was used to measure the Kinact and KI values of covalent compounds that inhibit the activity of Polθ in vitro.
Human Polθ polymerase domain (aa1820-2590) was expressed in E. coli, purified, aliquoted and stored at −80° C. until required. Polθ substrate was generated from a 1.2:1 mix of DNA II Short to DNA II Long to give a final concentration of […] substrate in annealing buffer (20 mM Tris pH 7.5, 50 mM NaCl). The substrate was heated in […] aliquots to 95° C. in a heating block for 5 min before the heating block switched off, the reaction left to cool to rt and stored at −20° C. until required.
Assay measurements were performed with 1× buffer comprising 25 mM Tris pH 7.5, 12.5 mM NaCl, […], 5% (v/v) glycerol, 0.01% v/v Triton x-100, 0.1 mg/ml BSA, 1 mM DTT. Test compounds were prepared by dilution in 100% DMSO to give a 12 μM intermediate stock of each (100× final top concentration). 100 nL of 23×1:1.5-fold serial dilutions and a DMSO only control were dispensed using the Tecan dispenser into Greiner 384 well black low volume plates (product code 784076). DMSO concentration was maintained at 1% of the final assay volume by back filling with DMSO.
2× Working stock of substrate (200 nM of DNA substrate and […] dNTPs) and enzyme ([…] PolΘ) were made up in assay buffer. 5 μL/well of both enzyme and substrate 2× solutions were dispensed using a Tempest dispenser (Formulatrix) into assay plates that had been pre-dispensed with compound to give a final assay concentration of 100 nM DNA substrate, […] dNTPs and 0.8 nM Polθ. To stop the reaction, […] of a solution containing 25 mM Tris-HCl pH 7.5 and 20 mM EDTA was added at […] (t=0, 2.5, 5, 7.5, 10, 12.5, 15, 20, 25, 30, 35, 40, 45, 50, 55 and 60 min) using the Tempest's time delay function. The plates were covered during the time course to prevent evaporation. After completing the assay, 5 μL of detection reagent (25 mM Tris-HCl pH 7.5 and 2.5% (v/v) PicoGreen) was dispensed into the wells using a Tempest liquid handler (Formulatrix) and plates subsequently read on the CLARIOstar Plus (BMG Labtech) using the default optical settings for fluorescein and the auto gain/focus settings.
All data analysis was carried out using GraphPad Prism V.8 (GraphPad Software Inc, San Diego, CA) Time course data for each inhibitor concentration was fitted to equation 1 to determine kobs values.^1 Any time points where the control (DMSO alone) reaction was no longer linear were excluded from the analysis. 1) Evaluation of Enzyme Inhibitors in Drug Discovery (Ch9), R. A Copeland, Wiley, 2nd Edition 2013.
A secondary plot of kobs vs [I] is used to determine the Kinact and KI parameters (for a 2-step covalent inhibitor) by fitting to equation 2.^1

SMILES | Kinact/Kl [M⁻¹ s⁻¹]
C=CC(=O)N1Cc2nc(CN3C[C@H]4CC(=O)N(c5cc(C(F)(F)F)cc(C)n5)[C@@H]4C(=O)N(C)c4cccc(Cl)c43)cn2CC1C(F)F (mixture of isomers) [Example 243a, (3aR,11aS)-5-(((S/R)-7-acryloyl-6-(difluoromethyl)-5,6,7,8-tetrahydroimidazo[1,2-a]pyrazin-2-yl)methyl)-6-chloro-10-methyl-1-(6-methyl-4-(trifluoromethyl)pyridin-2-yl)-1,3a,4,5,10,11a-hexahydro-2H-benzo[b]pyrrolo[2,3-f][1,4]diazocine-2,11(3H)-dione] | 1.03e+06
C=CC(=O)N1Cc2nc(CN3C[C@H]4CC(=O)N(c5cc(C(F)(F)F)cc(C)n5)[C@@H]4C(=O)N(C)c4cccc(Cl)c43)cn2CC1C(F)F (mixture of isomers) [Example 243b, (3aR,11aS)-5-(((R/S)-7-acryloyl-6-(difluoromethyl)-5,6,7,8-tetrahydroimidazo[1,2-a]pyrazin-2-yl)methyl)-6-chloro-10-methyl-1-(6-methyl-4-(trifluoromethyl)pyridin-2-yl)-1,3a,4,5,10,11a-hexahydro-2H-benzo[b]pyrrolo[2,3-f][1,4]diazocine-2,11(3H)-dione] | 580000
C=CC(=O)NC1CCN(CCN2C[C@H]3CC(=O)N(c4cc(C(F)(F)F)cc(C)n4)[C@@H]3C(=O)N(C)c3cccc(Cl)c32)CC1(F)F (mixture of isomers) [Example 257a, N—((S/R)-1-(2-((3aR,11aS)-6-chloro-10-methyl-1-(6-methyl-4-(trifluoromethyl)pyridin-2-yl)-2,11-dioxo-1,2,3,3a,4,10,11,11a-octahydro-5H-benzo[b]pyrrolo[2,3-f][1,4]diazocin-5-yl)ethyl)-3,3-difluoropiperidin-4-yl)acrylamide] | 2.17e+06
C=CC(=O)NC1CCN(CCN2C[C@H]3CC(=O)N(c4cc(C(F)(F)F)cc(C)n4)[C@@H]3C(=O)N(C)c3cccc(Cl)c32)CC1(F)F (mixture of isomers) [Example 257b, N—((R/S)-1-(2-((3aR,11aS)-6-chloro-10-methyl-1-(6-methyl-4-(trifluoromethyl)pyridin-2-yl)-2,11-dioxo-1,2,3,3a,4,10,11,11a-octahydro-5H-benzo[b]pyrrolo[2,3-f][1,4]diazocin-5-yl)ethyl)-3,3-difluoropiperidin-4-yl)acrylamide] | 2.56e+06
C=CC(=O)N1CCN(CCN2C[C@H]3CC(=O)N(c4cc(C(F)(F)F)cc(C)n4)[C@@H]3C(=O)N(C)c3cccc(Cl)c32)CC1CC#N (mixture of isomers) [Example 258a, 2-((R/S)-1-acryloyl-4-(2-((3aR,11aS)-6-chloro-10-methyl-1-(6-methyl-4-(trifluoromethyl)pyridin-2-yl)-2,11-dioxo-1,2,3,3a,4,10,11,11a-octahydro-5H-benzo[b]pyrrolo[2,3-f][1,4]diazocin-5-yl)ethyl)piperazin-2-yl)acetonitrile] | 1.65e+06
C=CC(=O)N1CCN(CCN2C[C@H]3CC(=O)N(c4cc(C(F)(F)F)cc(C)n4)[C@@H]3C(=O)N(C)c3cccc(Cl)c32)CC1CC#N (mixture of isomers) [Example 258b, 2-((S/R)-1-acryloyl-4-(2-((3aR,11aS)-6-chloro-10-methyl-1-(6-methyl-4-(trifluoromethyl)pyridin-2-yl)-2,11-dioxo-1,2,3,3a,4,10,11,11a-octahydro-5H-benzo[b]pyrrolo[2,3-f][1,4]diazocin-5-yl)ethyl)piperazin-2-yl)acetonitrile] | 1.53e+06
C=CC(=O)N1CCN(CCCN2C[C@H]3CC(=O)N(c4cc(C(F)(F)F)cc(C)n4)[C@@H]3C(=O)N(C)c3cccc(C)c32)CC1C(F)(F)F (mixture of isomers) [Example 265a, (3aR,11aS)-5-(3-((S/R)-4-acryloyl-3-(trifluoromethyl)piperazin-1-yl)propyl)-6,10-dimethyl-1-(6-methyl-4-(trifluoromethyl)pyridin-2-yl)-1,3a,4,5,10,11a-hexahydro-2H-benzo[b]pyrrolo[2,3-f][1,4]diazocine-2,11(3H)-dione] | 3.32e+06
C=CC(=O)N1CCN(CCCN2C[C@H]3CC(=O)N(c4cc(C(F)(F)F)cc(C)n4)[C@@H]3C(=O)N(C)c3cccc(C)c32)CC1C(F)(F)F (mixture of isomers) [Example 265b, (3aR,11aS)-5-(3-((R/S)-4-acryloyl-3-(trifluoromethyl)piperazin-1-yl)propyl)-6,10-dimethyl-1-(6-methyl-4-(trifluoromethyl)pyridin-2-yl)-1,3a,4,5,10,11a-hexahydro-2H-benzo[b]pyrrolo[2,3-f][1,4]diazocine-2,11(3H)-dione] | 1.58e+06
C=CC(=O)N1CCN(CCCN2C[C@H]3CC(=O)N(c4cc(C(F)(F)F)cc(C)n4)[C@@H]3C(=O)N(C)c3cccc(Cl)c32)CC1CC#N (mixture of isomers) [Example 267a, 2-((S/R)-1-acryloyl-4-(3-((3aR,11aS)-6-chloro-10-methyl-1-(6-methyl-4-(trifluoromethyl)pyridin-2-yl)-2,11-dioxo-1,2,3,3a,4,10,11,11a-octahydro-5H-benzo[b]pyrrolo[2,3-f][1,4]diazocin-5-yl)propyl)piperazin-2-yl)acetonitrile] | 1.24e+06
C=CC(=O)N1CCN(CCCN2C[C@H]3CC(=O)N(c4cc(C(F)(F)F)cc(C)n4)[C@@H]3C(=O)N(C)c3cccc(Cl)c32)CC1CC#N (mixture of isomers) [Example 267b, 2-((R/S)-1-acryloyl-4-(3-((3aR,11aS)-6-chloro-10-methyl-1-(6-methyl-4-(trifluoromethyl)pyridin-2-yl)-2,11-dioxo-1,2,3,3a,4,10,11,11a-octahydro-5H-benzo[b]pyrrolo[2,3-f][1,4]diazocin-5-yl)propyl)piperazin-2-yl)acetonitrile] | 3.03e+06
C=C(CN(C)C)C(=O)N[C@@H]1CCc2nc(CN3C[C@H]4CC(=O)N(c5cc(C(F)(F)F)cc(C)n5)[C@@H]4C(=O)N(C)c4cccc(C)c43)cn2C1 (mixture of isomers) [Example 329a, N-((R/S)-2-(((3aR, 11aS)-6,10-dimethyl-1-(6-methyl-4-(tri-fluoromethyl)pyridin-2-yl)-2,11-dioxo-1,2,3,3a,4,10,11,11a-octahydro-5H-benzo [b]pyrrolo[2,3-f][1,4]diazocin-5-yl)methyl)-5,6,7,8-tetrahydro-imidazo[1,2-a]pyridin-6-yl)-2-((dimethyl-amino)methyl)acryl-amide] | 1.73e+06
